Reference: patent US10800791B2, “Triazole ACC inhibitors and uses thereof” (Gilead Apollo, LLC, priority 2015, dated 2020)
≈ marks a conversion by molar mass, not a printed value. Like-named read-outs stand apart in the source and are kept apart here.

Legend:
human (hACC2) = human (hACC2) (Homo sapiens, UniProt O00763); test: In vitro ACC inhibition assay (ADP-Glo), hACC2; assay type: biochemical; conditions: 5 nM ACC2, 20 μM ATP, 20 μM acetyl-CoA
Procedure: The detailed procedure is as follows. […] 10 μL ADP glo reagent was added. […] 20 μL kinase detection reagent was added.

C. albicans = test: Antifungal Activity Assay (broth microtiter MIC), C. albicans; assay type: cell-based, Candida albicans; conditions: Candida albicans, ATCC90028, 48 h
Procedure, shortened: (§1)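 MICs were scored by eye at 48 h relative to the growth control. Plates followed CLSI M27-A3, with Candida suspensions in RPMI 1640+MOPS giving a final 2.5×10^3 CFU/mL; the colonies came from Sabouraud agar grown overnight at 35 °C.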

C. krusei = test: Antifungal Activity Assay (broth microtiter MIC), C. krusei; assay type: cell-based, Candida krusei; conditions: Pichia kudriavzevii, ATCC6258, 48 h
Procedure, shortened: as §1

C. parapsilosis = test: Antifungal Activity Assay (broth microtiter MIC), C. parapsilosis; assay type: cell-based, Candida parapsilosis; conditions: Lodderomyces parapsilosis, ATCC22019, 48 h
Procedure, shortened: as §1

[1] = system: Collectotrichum graminicola (Cg); test: Growth inhibition assay of fungal pathogens, Cg; assay type: cell-based; conditions: 48 h
Procedure, shortened: (§2)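 Inhibition percentages reflect 48 h OD600 and visual scores relative to a 2% DMSO control. Test concentrations were 50, 10, 2 ppm or 2, 0.4, 0.08 ppm final, applied to spores in 17% V8 medium.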

Diplodia maydis (Dm) = test: Growth inhibition assay of fungal pathogens, Dm; assay type: cell-based; conditions: Stenocarpella maydis, 48 h
Procedure, shortened: as §2

[2] = system: Fusarium moniliforme (Fm); test: Growth inhibition assay of fungal pathogens, Fm; assay type: cell-based; conditions: for IC90: Fusarium verticillioides, 48 h, read-out: Concentration at 90% Inhibition Fm
Procedure, shortened: as §2

[3] = system: Fusarium virguliforme (Fv); test: Growth inhibition assay of fungal pathogens, Fv; assay type: cell-based; conditions: 48 h
Procedure, shortened: as §2

[4] = system: Phytophthora capsici (Pc); test: Growth inhibition assay of fungal pathogens, Pc; assay type: cell-based; conditions: 48 h
Procedure, shortened: as §2

Rhizoctonia solani (Rs) = test: Growth inhibition assay of fungal pathogens, Rs; assay type: cell-based; conditions: 48 h
Septoria tritici (St) = test: Growth inhibition assay of fungal pathogens, St; assay type: cell-based; conditions: Zymoseptoria tritici, 48 h
Procedure, shortened: as §2

[5] = Fusarium moniliforme, growth inhibition at 48 hours vs 2% DMSO control

Chain of human (hACC2) (O00763 whole entry): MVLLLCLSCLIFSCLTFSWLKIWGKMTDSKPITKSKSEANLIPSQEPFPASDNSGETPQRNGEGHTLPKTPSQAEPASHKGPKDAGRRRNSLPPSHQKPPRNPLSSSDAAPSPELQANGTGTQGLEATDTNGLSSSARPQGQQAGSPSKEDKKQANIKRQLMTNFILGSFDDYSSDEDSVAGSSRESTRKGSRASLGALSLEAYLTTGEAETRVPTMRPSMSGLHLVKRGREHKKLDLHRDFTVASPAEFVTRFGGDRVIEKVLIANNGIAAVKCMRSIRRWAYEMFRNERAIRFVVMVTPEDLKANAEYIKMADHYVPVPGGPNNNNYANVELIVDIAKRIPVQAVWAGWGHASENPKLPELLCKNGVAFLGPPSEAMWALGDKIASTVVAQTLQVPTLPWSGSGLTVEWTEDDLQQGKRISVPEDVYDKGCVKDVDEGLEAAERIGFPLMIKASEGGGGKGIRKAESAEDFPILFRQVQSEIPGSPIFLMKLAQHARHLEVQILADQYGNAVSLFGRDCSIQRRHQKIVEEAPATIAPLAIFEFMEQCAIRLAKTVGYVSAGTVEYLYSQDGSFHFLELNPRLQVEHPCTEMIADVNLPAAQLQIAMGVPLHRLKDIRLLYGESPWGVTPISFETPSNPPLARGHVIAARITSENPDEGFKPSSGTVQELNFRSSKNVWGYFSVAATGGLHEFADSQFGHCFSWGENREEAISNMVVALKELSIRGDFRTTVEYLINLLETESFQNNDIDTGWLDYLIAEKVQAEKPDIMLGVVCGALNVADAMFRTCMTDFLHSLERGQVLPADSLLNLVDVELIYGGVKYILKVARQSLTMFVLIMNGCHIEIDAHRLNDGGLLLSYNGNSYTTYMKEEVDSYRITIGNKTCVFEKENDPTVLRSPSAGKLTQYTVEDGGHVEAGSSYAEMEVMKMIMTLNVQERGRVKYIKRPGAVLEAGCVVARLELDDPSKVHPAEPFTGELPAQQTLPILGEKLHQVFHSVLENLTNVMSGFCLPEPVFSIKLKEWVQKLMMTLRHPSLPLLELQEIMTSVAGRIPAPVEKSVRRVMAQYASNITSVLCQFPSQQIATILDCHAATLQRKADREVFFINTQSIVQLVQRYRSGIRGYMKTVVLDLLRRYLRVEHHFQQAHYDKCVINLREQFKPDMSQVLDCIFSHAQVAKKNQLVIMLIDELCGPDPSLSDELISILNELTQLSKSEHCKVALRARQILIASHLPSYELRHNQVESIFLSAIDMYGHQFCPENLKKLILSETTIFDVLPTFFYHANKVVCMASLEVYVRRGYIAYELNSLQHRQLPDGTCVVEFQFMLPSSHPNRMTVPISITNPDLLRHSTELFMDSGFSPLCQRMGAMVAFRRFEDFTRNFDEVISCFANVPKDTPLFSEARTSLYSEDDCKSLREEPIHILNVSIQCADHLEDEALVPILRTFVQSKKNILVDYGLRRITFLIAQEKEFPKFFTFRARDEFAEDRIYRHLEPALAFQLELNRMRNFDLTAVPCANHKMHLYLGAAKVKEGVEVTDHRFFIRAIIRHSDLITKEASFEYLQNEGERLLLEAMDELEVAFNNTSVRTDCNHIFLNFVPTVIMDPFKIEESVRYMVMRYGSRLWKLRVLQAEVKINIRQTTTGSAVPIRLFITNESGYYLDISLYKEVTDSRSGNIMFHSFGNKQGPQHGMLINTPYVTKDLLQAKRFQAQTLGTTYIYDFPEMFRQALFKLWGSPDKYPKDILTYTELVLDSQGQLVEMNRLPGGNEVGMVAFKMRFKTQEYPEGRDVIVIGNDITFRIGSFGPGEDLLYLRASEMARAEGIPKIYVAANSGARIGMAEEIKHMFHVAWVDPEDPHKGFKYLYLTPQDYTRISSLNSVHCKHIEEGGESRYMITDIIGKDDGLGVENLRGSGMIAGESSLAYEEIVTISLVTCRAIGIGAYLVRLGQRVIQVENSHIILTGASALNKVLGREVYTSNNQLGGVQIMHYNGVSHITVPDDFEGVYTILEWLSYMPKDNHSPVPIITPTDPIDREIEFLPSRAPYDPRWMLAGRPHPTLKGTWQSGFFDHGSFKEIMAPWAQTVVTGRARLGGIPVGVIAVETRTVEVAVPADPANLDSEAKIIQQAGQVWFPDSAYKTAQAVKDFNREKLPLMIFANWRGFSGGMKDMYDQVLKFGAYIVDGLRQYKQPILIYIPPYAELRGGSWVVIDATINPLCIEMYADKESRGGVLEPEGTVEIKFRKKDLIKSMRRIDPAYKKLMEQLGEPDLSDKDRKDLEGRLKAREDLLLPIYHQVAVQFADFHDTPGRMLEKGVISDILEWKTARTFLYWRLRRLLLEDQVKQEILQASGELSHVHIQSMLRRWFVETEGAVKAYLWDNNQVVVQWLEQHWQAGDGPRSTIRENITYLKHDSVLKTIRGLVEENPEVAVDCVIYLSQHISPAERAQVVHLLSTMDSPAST

## COCCCO[C@@H](Cn1c(=O)n([C@H](C)C(=O)NC(C)C)c(=O)c2c(C)c(-n3nccn3)sc21)c1cc(F)ccc1OC [Compound I-87, (R)-2-(1-((R)-2-(5-fluoro-2-methoxyphenyl)-2-(3-methoxy-propoxy)ethyl)-5-methyl-2,4-dioxo-6-(2H-1,2,3-triazol-2-yl)-1,4-dihydrothieno[2,3-d]pyrimidin-3(2H)-yl)-N-isopropylpropanamide]
Human (hACC2); Table 2a
  IC50: 5 to 10 nM
Human (hACC2); Table 2b, additional results
  IC50: 5 to 10 nM
C. albicans; Table 3a, ATCC 90028, 3 replicates, MIC recorded at 48 h, read-out: MIC, C. albicans ATCC 90028
  MIC: 1.1 to 2 µg/mL (≈ 1.83 to 3.32 µM)
C. albicans; Table 3b (additional results), ATCC 90028, 3 replicates, MIC recorded at 48 h, read-out: MIC, C. albicans ATCC 90028
  MIC: 2.01 to 4 µg/mL (≈ 3.34 to 6.64 µM)
C. krusei; Table 3a, ATCC 6258, 3 replicates, MIC recorded at 48 h, read-out: MIC, C. krusei ATCC 6258
  MIC: 1.1 to 2 µg/mL (≈ 1.83 to 3.32 µM)
C. krusei; Table 3b (additional results), ATCC 6258, 3 replicates, MIC recorded at 48 h, read-out: MIC, C. krusei ATCC 6258
  MIC: 1.01 to 2 µg/mL (≈ 1.68 to 3.32 µM)
C. parapsilosis; Table 3a, ATCC 22019, 3 replicates, MIC recorded at 48 h, read-out: MIC, C. parapsilosis ATCC 22019
  MIC: 0.25 to 1 µg/mL (≈ 0.415 to 1.66 µM)
C. parapsilosis; Table 3b (additional results), ATCC 22019, 3 replicates, MIC recorded at 48 h, read-out: MIC, C. parapsilosis ATCC 22019
  MIC: 1.01 to 2 µg/mL (≈ 1.68 to 3.32 µM)
[1]; Collectotrichum graminicola, growth inhibition at 48 hours vs 2% DMSO control, read-out: Concentration at 90% Inhibition Cg
  IC90: 0.08 µg/mL (≈ 0.133 µM)
[1]; Collectotrichum graminicola, growth inhibition vs 2% DMSO control at 48 hours, read-out: Concentration at 90% Inhibition Cg
  IC90: 0.08 µg/mL (≈ 0.133 µM)
Diplodia maydis (Dm); Diplodia maydis, growth inhibition at 48 hours vs 2% DMSO control, read-out: Concentration at 90% Inhibition Dm
  IC90: 0.4 µg/mL (≈ 0.664 µM)
Diplodia maydis (Dm); Diplodia maydis, growth inhibition vs 2% DMSO control at 48 hours, read-out: Concentration at 90% Inhibition Dm
  IC90: 0.4 µg/mL (≈ 0.664 µM)
[2]; [5]
  IC90: 0.08 µg/mL (≈ 0.133 µM)
[2]; Fusarium moniliforme, growth inhibition vs 2% DMSO control at 48 hours
  IC90: 0.08 µg/mL (≈ 0.133 µM)
[3]; growth inhibition at 48 hours vs 2% DMSO control, read-out: Concentration at 90% Inhibition Fv
  IC90: 0.08 µg/mL (≈ 0.133 µM)
[3]; growth inhibition vs 2% DMSO control at 48 hours, read-out: Concentration at 90% Inhibition Fv
  IC90: 0.08 µg/mL (≈ 0.133 µM)
[4]; growth inhibition at 48 hours vs 2% DMSO control, read-out: Concentration at 90% Inhibition Pc
  IC90: > 50 µg/mL
[4]; growth inhibition vs 2% DMSO control at 48 hours, read-out: Concentration at 90% Inhibition Pc
  IC90: > 50 µg/mL
Rhizoctonia solani (Rs); mycelial plugs, growth inhibition at 48 hours vs 2% DMSO control, read-out: Concentration at 90% Inhibition Rs
  IC90: 0.08 µg/mL (≈ 0.133 µM)
Rhizoctonia solani (Rs); mycelial plugs, growth inhibition vs 2% DMSO control at 48 hours, read-out: Concentration at 90% Inhibition Rs
  IC90: 0.08 µg/mL (≈ 0.133 µM)
Septoria tritici (St); Septoria tritici, growth inhibition at 48 hours vs 2% DMSO control, read-out: Concentration at 90% Inhibition St
  IC90: 10 µg/mL (≈ 16.6 µM)
Septoria tritici (St); Septoria tritici, growth inhibition vs 2% DMSO control at 48 hours, read-out: Concentration at 90% Inhibition St
  IC90: > 50 µg/mL

## COc1ccc(F)cc1[C@H](Cn1c(=O)n([C@@H](C)C(=O)NC(C)C)c(=O)c2c(C)c(-n3nccn3)sc21)OCCO [Compound I-88, (S)-2-(1-((R)-2-(5-fluoro-2-methoxyphenyl)-2-(2-hydroxyethoxy)ethyl)-5-methyl-2,4-dioxo-6-(2H-1,2,3-triazol-2-yl)-1,4-dihydro-thieno[2,3-d]pyrimidin-3(2H)-yl)-N-isopropylpropanamide]
Human (hACC2); Table 2a
  IC50: 5 to 10 nM
Human (hACC2); Table 2b, additional results
  IC50: 5 to 10 nM
C. albicans; read-out: MIC, C. albicans ATCC 90028, Table 3a, 3 replicates, MIC recorded at 48 h
  MIC: 1.1 to 2 µg/mL (≈ 1.91 to 3.48 µM)
C. albicans; read-out: MIC, C. albicans ATCC 90028, Table 3b (additional results), 3 replicates, MIC recorded at 48 h
  MIC: 2.01 to 4 µg/mL (≈ 3.5 to 6.96 µM)
C. krusei; read-out: MIC, C. krusei ATCC 6258, Table 3a, 3 replicates, MIC recorded at 48 h
  MIC: 0.25 to 1 µg/mL (≈ 0.435 to 1.74 µM)
C. krusei; read-out: MIC, C. krusei ATCC 6258, Table 3b (additional results), 3 replicates, MIC recorded at 48 h
  MIC: 1.01 to 2 µg/mL (≈ 1.76 to 3.48 µM)
C. parapsilosis; read-out: MIC, C. parapsilosis ATCC 22019, Table 3a, 3 replicates, MIC recorded at 48 h
  MIC: 1.1 to 2 µg/mL (≈ 1.91 to 3.48 µM)
C. parapsilosis; read-out: MIC, C. parapsilosis ATCC 22019, Table 3b (additional results), 3 replicates, MIC recorded at 48 h
  MIC: 1.01 to 2 µg/mL (≈ 1.76 to 3.48 µM)
[1]; read-out: Concentration at 90% Inhibition Cg, Collectotrichum graminicola, growth inhibition at 48 hours vs 2% DMSO control
  IC90: 0.08 µg/mL (≈ 0.139 µM)
[1]; read-out: Concentration at 90% Inhibition Cg, Collectotrichum graminicola, growth inhibition vs 2% DMSO control at 48 hours
  IC90: 0.08 µg/mL (≈ 0.139 µM)
Diplodia maydis (Dm); read-out: Concentration at 90% Inhibition Dm, Diplodia maydis, growth inhibition at 48 hours vs 2% DMSO control
  IC90: 0.4 µg/mL (≈ 0.696 µM)
Diplodia maydis (Dm); read-out: Concentration at 90% Inhibition Dm, Diplodia maydis, growth inhibition vs 2% DMSO control at 48 hours
  IC90: 0.4 µg/mL (≈ 0.696 µM)
[2]; [5]
  Concentration at 90% Inhibition Fm: AA (compound concentration of 0.08 ppm at 90% inhibition of fungal pathogens)
[2]
  IC90: 0.08 µg/mL (≈ 0.139 µM)
[3]; read-out: Concentration at 90% Inhibition Fv, Fusarium virguliforme, growth inhibition at 48 hours vs 2% DMSO control
  IC90: 2 µg/mL (≈ 3.48 µM)
[3]; read-out: Concentration at 90% Inhibition Fv, Fusarium virguliforme, growth inhibition vs 2% DMSO control at 48 hours
  IC90: 2 µg/mL (≈ 3.48 µM)
[4]; read-out: Concentration at 90% Inhibition Pc, Phytophthora capsici, growth inhibition at 48 hours vs 2% DMSO control
  IC90: 2 µg/mL (≈ 3.48 µM)
[4]; read-out: Concentration at 90% Inhibition Pc, Phytophthora capsici, growth inhibition vs 2% DMSO control at 48 hours
  IC90: 2 µg/mL (≈ 3.48 µM)
Rhizoctonia solani (Rs); read-out: Concentration at 90% Inhibition Rs, Rhizoctonia solani, mycelial plugs, growth inhibition at 48 hours vs 2% DMSO control
  IC90: 0.08 µg/mL (≈ 0.139 µM)
Rhizoctonia solani (Rs); read-out: Concentration at 90% Inhibition Rs, Rhizoctonia solani, mycelial plugs, growth inhibition vs 2% DMSO control at 48 hours
  IC90: 0.08 µg/mL (≈ 0.139 µM)
Septoria tritici (St); read-out: Concentration at 90% Inhibition St, Septoria tritici, growth inhibition at 48 hours vs 2% DMSO control
  IC90: 2 µg/mL (≈ 3.48 µM)
Septoria tritici (St); read-out: Concentration at 90% Inhibition St, Septoria tritici, growth inhibition vs 2% DMSO control at 48 hours
  IC90: 10 µg/mL (≈ 17.4 µM)
